No end group written: not given here. *: point of attachment. FITC = O=C1OC2(c3ccc(O)cc3Oc3cc(O)ccc32)c2ccc(NC(=S)*)cc21

Experiment [1] deals with Dictyostelium discoideum amoeba cells. The experiment is classed as cell-based. As to conditions: for entry of fluorescently labeled peptide into cells: 10 μM, 1 hour, Dictyostelium cell; for time for half-maximal permeation: FITC-labelled peptide at 20 micromolar, Dictyostelium cells. The protocol: (§1) Peptides were labelled with Fluorescein isothiocyanate (FITC) using a FITC labeling kit as per instructions (Pierce, UK). When added to cell cultures the labeled peptides were visualized using a fluorescent microscope by exciting the FITC with a 488 nm spectral line, argon-ion laser (Excitation wavelength of 494 nm and an Emission wavelength of 518 nm).
AX2 wild type Dictyostelium cells were grown on SM agar plates seeded with Aerobacter aerogenes bacteria (also known as Klebsiella aerogenes) as a food source.
Cupid A ([…]; SEQ ID NO: 2) and Cupid B ([…]; SEQ ID NO: 1) were chemically synthesized labelled with FITC at the amino terminal. The peptides were added to cultured eukaryotic cells of Dictyostelium discoideum amoeba for varying amounts of time up to 2 hours. Cells were then washed and prepared for examination under a fluorescent microscope (FIG. 1). The time courses of permeation were compared to the class 3 CPP, the Antennapedia peptide, pANT which was also labelled with FITC in chemical synthesis (FIG. 2).

Experiment [2] concerns PKA-dependent process of Dictyostelium aggregation. Put plainly: Aggregation of starved Dictyostelium cultures (PKA-dependent). In kind it is cell-based, Dictyostelium discoideum. As to conditions: 10 micromolar. As for the experimental part:
FIG. 6. Cupid can transport small molecule cargo into cells. Starved Dictyostelium cultures were treated with no peptide (A), cupid B peptide (B), PKI peptide (C) and Cupid B-PKI peptide (D) and analysed for aggregation.
Upon starvation Dictyostelium initiates a developmental program leading to the aggregation of free-living amoebae. Genetic research has uncovered the crucial role that cyclic adenosine monophosphate (cAMP) plays in orchestrating as an extracellular chemoattractant in the initial aggregation process through Dictyostelium cAMP-dependent Protein Kinase (DdPKA). DdPKA can be inhibited by PKI, a 20 amino acid peptide sequence derived from an inhibitor of PKA, by PKI binding directly to the catalytic unit of PKA.
By creating a Cupid B-PKI fusion protein we aimed to establish that it prevents starving Dictyostelium cells from aggregating in vivo.

Experiment [3] concerns human fibroblasts. Description: Permeation of FITC-labelled peptide into human fibroblasts. The experiment is classed as cell-based. As to conditions: 10 μM, 1 hour, Human Fibroblast cell.
From the text: as §1

Experiment [4] concerns human embryonic kidney cells. Put plainly: Permeation of FITC-labelled peptide into human embryonic kidney cells. As to conditions: 10 μM, 1 hour, human kidney cell. In kind it is cell-based.
From the text: as §1

For the substance “FITC-Cupid A: Cupid A (SEQ ID NO: 2) chemically synthesized, labelled with FITC at the amino terminal ({FITC}-RSVQIWFQNRRAKAR; listed as Dictyostelium discoideum)”, in experiment [1], the “entry of fluorescently labeled peptide into cells” value is “entering cultured cells” and the “time for half-maximal permeation” value is 28 min.

On to “Cupid B peptide: RRVQIWFQNKRAKVKR (SEQ ID NO: 1), cell penetrating peptide from Dictyostelium discoideum (listed as Dictyostelium discoideum)”, for which, in experiment [2], the “effect on Dictyostelium aggregation” value is recorded as “neither the Cupid B peptide nor the PKI peptide alone have any effect on aggregation”.

For “FITC-Cupid B: Cupid B (SEQ ID NO: 1) chemically synthesized, labelled with FITC at the amino terminal ({FITC}-RRVQIWFQNKRAKVKR; listed as Dictyostelium discoideum)”, the “entry of fluorescently labeled peptide into cells” value in experiment [1], in experiment [3] and in experiment [4] was “entering cultured cells” throughout. Besides, the “time for half-maximal permeation” value in experiment [1] worked out at 17 min. In addition, the reversibility of permeation entry in experiment [1] (media containing FITC-peptide replaced with peptide-free media) is “reversible”.
